Values quoted from earlier work in patent EP3373945B1, “AN ORAL DRUG FORMULATION COMPRISING SILYBIN” (ISTITUTO BIOCHIMICO ITALIANO GIOVANNI LORENZINI S.p.A., priority 2015, dated 2017).
Converted amounts (≈) assume the structure as drawn.

## COc1cc(C2Oc3cc([C@H]4Oc5cc(O)cc(O)c5C(=O)[C@@H]4O)ccc3OC2CO)ccc1O (stereo partly shown) [silybin]
  water solubility: 0.43 mg/mL (≈ 891 µM)
